In ChEMBL document CHEMBL1159220, “Additional dolabellane diterpenes from the Caribbean gorgonian octocoral Eunicea laciniata” (J Nat Prod, 1995):
Converted amounts (≈) assume the structure as drawn.

tested on: HeLa; test: Cytotoxicity against human HeLa cells; format: functional, cell-based

Row | Compound | IC50 [µg/mL]
1 | C/C1=C/C(=O)[C@]2(C)CC(=O)[C@H](C(C)C)[C@H]2CC/C(C)=C\CC1 [EDUDIONE] | > 100
2 | CC(C)=C1CC[C@@]2(C)C(=O)/C=C(/C)CC/C=C(/C)CC[C@H]12 [EDUENONE] | 50 (≈ 175 µM)
3 | C=C(C)[C@@]1(O)CC[C@@]2(C)C/C=C(\C)CC/C=C(\C)CC[C@@H]21 [EDUNOL] | 25 (≈ 86.7 µM)
4 | CC(C)=C1CC[C@@]2(C)C(=O)C[C@H](C)CC/C=C(\C)CC[C@H]12 [EDUNONE] | 25 (≈ 86.7 µM)
